For 18 compounds, IC50 results are on record in patent US11180474B2 (BRISTOL-MYERS SQUIBB COMPANY, priority 2016, dated 2021).

The target of one assay is T1, human TLR7 (Homo sapiens, UniProt Q9NYK1).
T1 construct: host or cells: HEK-Blue cells
T1 sequence (Q9NYK1 27-1049): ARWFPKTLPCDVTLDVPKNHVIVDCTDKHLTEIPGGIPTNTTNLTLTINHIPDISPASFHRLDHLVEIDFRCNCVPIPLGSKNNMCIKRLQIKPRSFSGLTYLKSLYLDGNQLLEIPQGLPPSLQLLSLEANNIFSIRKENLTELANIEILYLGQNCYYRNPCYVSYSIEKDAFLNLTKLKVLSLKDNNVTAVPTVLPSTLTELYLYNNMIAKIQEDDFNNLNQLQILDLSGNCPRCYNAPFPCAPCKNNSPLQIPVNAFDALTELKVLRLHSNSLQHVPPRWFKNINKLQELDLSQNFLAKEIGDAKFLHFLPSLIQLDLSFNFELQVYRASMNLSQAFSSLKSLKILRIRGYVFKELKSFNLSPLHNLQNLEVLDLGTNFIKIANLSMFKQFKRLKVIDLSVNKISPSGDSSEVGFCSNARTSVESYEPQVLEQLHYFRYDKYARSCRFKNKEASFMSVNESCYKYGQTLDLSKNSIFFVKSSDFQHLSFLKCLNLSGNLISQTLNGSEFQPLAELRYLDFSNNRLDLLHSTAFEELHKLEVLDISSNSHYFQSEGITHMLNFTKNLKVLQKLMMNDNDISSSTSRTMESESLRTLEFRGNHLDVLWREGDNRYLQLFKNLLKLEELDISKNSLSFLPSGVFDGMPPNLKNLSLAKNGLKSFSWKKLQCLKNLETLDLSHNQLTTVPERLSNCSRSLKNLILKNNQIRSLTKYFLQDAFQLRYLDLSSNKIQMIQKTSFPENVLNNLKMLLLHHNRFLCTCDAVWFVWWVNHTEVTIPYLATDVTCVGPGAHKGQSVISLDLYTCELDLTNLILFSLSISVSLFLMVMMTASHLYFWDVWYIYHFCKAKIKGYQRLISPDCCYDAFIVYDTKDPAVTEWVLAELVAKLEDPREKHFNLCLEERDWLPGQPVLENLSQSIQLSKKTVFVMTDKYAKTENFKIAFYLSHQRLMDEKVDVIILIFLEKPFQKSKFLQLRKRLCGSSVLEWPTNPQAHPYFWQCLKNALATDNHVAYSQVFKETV
As to the kind of experiment: TLR7 inhibition reporter assay (HEK-Blue cells, SEAP reporter, gardiquimod stimulation). It counts as cell-based. The conditions noted are these: HEK-Blue cells overexpressing human TLR7, gardiquimod 7.5 μM. Put shortly: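 SEAP readout via HEK-Blue Detection medium after 22 h at 37 °C, 5% CO2 defines inhibition, normalized between agonist-plus-DMSO wells and a reference inhibitor. Compound dose range 0.05 nM–50 μM; TLR7 cells at 15,000/well (gardiquimod), TLR8 at 20,000/well (R848).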
In general terms: In a reporter assay the amount or activity of a reporter protein is the signal.

A further assay deals with T2, human TLR9 (Homo sapiens, UniProt Q9NR96).
T2 construct: host or cells: HEK-Blue cells
T2 sequence (Q9NR96 26-1032): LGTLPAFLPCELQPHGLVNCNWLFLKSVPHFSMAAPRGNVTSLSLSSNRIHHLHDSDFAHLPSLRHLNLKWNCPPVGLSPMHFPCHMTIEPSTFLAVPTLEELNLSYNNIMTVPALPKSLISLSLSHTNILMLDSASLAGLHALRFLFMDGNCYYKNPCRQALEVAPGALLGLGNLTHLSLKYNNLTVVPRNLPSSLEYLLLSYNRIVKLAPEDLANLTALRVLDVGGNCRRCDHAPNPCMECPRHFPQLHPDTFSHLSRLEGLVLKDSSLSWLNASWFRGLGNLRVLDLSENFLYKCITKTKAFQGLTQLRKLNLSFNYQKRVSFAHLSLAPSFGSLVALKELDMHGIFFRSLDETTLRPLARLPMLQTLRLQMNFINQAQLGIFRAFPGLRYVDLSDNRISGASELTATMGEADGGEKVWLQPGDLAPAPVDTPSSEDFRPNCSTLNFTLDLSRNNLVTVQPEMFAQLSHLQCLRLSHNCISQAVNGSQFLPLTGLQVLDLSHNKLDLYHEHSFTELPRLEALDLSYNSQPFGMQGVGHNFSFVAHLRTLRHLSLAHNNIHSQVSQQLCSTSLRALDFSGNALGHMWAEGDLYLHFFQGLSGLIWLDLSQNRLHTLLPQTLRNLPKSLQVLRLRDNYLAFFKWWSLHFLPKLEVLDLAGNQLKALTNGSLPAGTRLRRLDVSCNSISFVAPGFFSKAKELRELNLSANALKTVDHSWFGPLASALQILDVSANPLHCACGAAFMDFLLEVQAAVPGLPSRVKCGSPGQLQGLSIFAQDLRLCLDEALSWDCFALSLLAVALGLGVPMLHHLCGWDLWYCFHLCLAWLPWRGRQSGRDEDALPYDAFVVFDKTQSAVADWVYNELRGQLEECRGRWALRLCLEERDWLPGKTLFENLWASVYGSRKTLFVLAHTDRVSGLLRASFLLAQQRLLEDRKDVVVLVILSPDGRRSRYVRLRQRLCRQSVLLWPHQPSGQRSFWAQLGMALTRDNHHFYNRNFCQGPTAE
Nature of the assay: TLR9 inhibition reporter assay (HEK-Blue cells, SEAP reporter, ODN2006 stimulation). The assay is classed as cell-based. The conditions noted are these: HEK-Blue cells overexpressing human TLR9, ODN2006 5 nM. Put shortly:
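HEK-Blue cells overexpressing human TLR7, TLR8 or TLR9 carry a SEAP reporter driven by NF-κB/AP-1 sites. Compounds (0.05 nM–50 μM) were preincubated 30 min at room temperature, then cells were stimulated with gardiquimod 7.5 μM (TLR7), R848 15.9 μM (TLR8) or ODN2006 5 nM (TLR9) for 22 h at 37 °C.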

Structures are written as SMILES.

One may read the IC50 as the point on the concentration scale where inhibition reaches its midpoint. Low values mean inhibition by little substance, high ones a need for much substance. For `COc1ccc(-c2[nH]c3ccc(C4CCN(C(=O)[C@@H]5CCCN5C(C)=O)CC4)cc3c2CC(F)(F)F)cc1OC` [Example 336, (S)-1-(2-(4-(2-(3,4-dimethoxyphenyl)-3-(2,2,2-trifluoroethyl)-1H-indol-5-yl)piperidine-1-carbonyl)pyrrolidin-1-yl)ethan-1-one], the IC50 is 359 nM against human TLR7 and 27800 nM on human TLR9.

As to `COc1ccc(-c2[nH]c3ccc(C4CCN(CC(=O)NCC#N)CC4)cc3c2CC(F)(F)F)cc1OC` [Example 381, N-(cyanomethyl)-2-(4-(2-(3,4-dimethoxyphenyl)-3-(2,2,2-trifluoroethyl)-1H-indol-5-yl)piperidin-1-yl)acetamide], the results for the half-maximal inhibitory concentration (IC50) on human TLR7 and against human TLR9 were 63 nM and 5910 nM, respectively.

Take `COc1ccc(-c2[nH]c3ccc(C4CCN(C(=O)C5CCN(C(C)=O)CC5)CC4)cc3c2CC(F)(F)F)cc1OC` [Example 345, 1-(4-(4-(2-(3,4-dimethoxyphenyl)-3-(2,2,2-trifluoroethyl)-1H-indol-5-yl)piperidine-1-carbonyl)piperidin-1-yl)ethan-1-one]: the IC50 is 256 nM against human TLR7 and 25200 nM at human TLR9.

On to `COc1ccc(-c2[nH]c3ccc(C4CCN(C(=O)Cc5cnccn5)CC4)cc3c2CC(F)(F)F)cc1OC` [Example 342, 1-(4-(2-(3,4-dimethoxyphenyl)-3-(2,2,2-trifluoroethyl)-1H-indol-5-yl)piperidin-1-yl)-2-(pyrazin-2-yl)ethan-1-one], for which the IC50 against human TLR7 worked out at 240 nM; at human TLR9 it was 26400 nM.

As to `COc1ccc(-c2[nH]c3ccc(C4CCN(CC(=O)NCCNC(C)=O)CC4)cc3c2CC(F)(F)F)cc1OC` [Example 379, N-(2-acetamidoethyl)-2-(4-(2-(3,4-dimethoxyphenyl)-3-(2,2,2-trifluoroethyl)-1H-indol-5-yl)piperidin-1-yl)acetamide], the IC50 at human TLR7 was determined as 94 nM; on human TLR9 it was 4230 nM.

`COc1ccc(-c2[nH]c3ccc(C4CCN(CC(=O)NCCN(C)C)CC4)cc3c2CC(F)(F)F)cc1OC` [Example 380, 2-(4-(2-(3,4-dimethoxyphenyl)-3-(2,2,2-trifluoroethyl)-1H-indol-5-yl)piperidin-1-yl)-N-(2-(dimethylamino)ethyl)acetamide]: the IC50 was 33 nM against human TLR7 and 745 nM against human TLR9.

As to `COc1ccc(-c2[nH]c3ccc(C4CCN(CC(=O)N(C)CCCN(C)C)CC4)cc3c2CC(F)(F)F)cc1OC` [Example 365, 2-(4-(2-(3,4-dimethoxyphenyl)-3-(2,2,2-trifluoroethyl)-1H-indol-5-yl)piperidin-1-yl)-N-(3-(dimethylamino)propyl)-N-methylacetamide], the IC50 at human TLR7 amounted to 14 nM; against human TLR9, 190 nM.

As to `COc1ccc(-c2[nH]c3ccc(C4CCN(C(=O)CC(F)(F)F)CC4)cc3c2CC(F)(F)F)cc1OC` [Example 339, 1-(4-(2-(3,4-dimethoxyphenyl)-3-(2,2,2-trifluoroethyl)-1H-indol-5-yl)piperidin-1-yl)-3,3,3-trifluoropropan-1-one], the IC50 was 331 nM against human TLR7 and no less than 50000 nM against human TLR9.

In the case of `COc1ccc(-c2[nH]c3ccc(C4CCNCC4)cc3c2CC(F)(F)F)cc1OC` [Example 329, 2-(3,4-dimethoxyphenyl)-5-(piperidin-4-yl)-3-(2,2,2-trifluoroethyl)-1H-indole], the IC50 against human TLR7 was found to be 15 nM; against human TLR9, 1160 nM.

Regarding `COc1ccc(-c2[nH]c3ccc(C4CCNCC4F)cc3c2C(C)C)cc1OC` (racemic) [Example 319, 2-(3,4-dimethoxyphenyl)-5-(3-fluoropiperidin-4-yl)-3-isopropyl-1H-indole], the IC50 against human TLR7 is 45 nM; on human TLR9, 9110 nM.

As to `CNC(=O)CN1CCC(c2ccc3[nH]c(-c4ccc(OC)c(OC)c4)c(CC(F)F)c3c2)CC1` [Example 401, 2-(4-(3-(2,2-difluoroethyl)-2-(3,4-dimethoxyphenyl)-1H-indol-5-yl)piperidin-1-yl)-N-methylacetamide], the IC50 on human TLR7 was 132 nM; against human TLR9, 5290 nM.

Turning to `COc1ccc(-c2[nH]c3ccc(C4CCN(C(=O)CCC(N)=O)CC4)cc3c2CC(F)(F)F)cc1OC` [Example 333, 4-(4-(2-(3,4-dimethoxyphenyl)-3-(2,2,2-trifluoroethyl)-1H-indol-5-yl)piperidin-1-yl)-4-oxobutanamide], the IC50 is 94 nM against human TLR7 and no less than 50000 nM at human TLR9.

On to `CCC(C)NC(=O)CN1CCC(c2ccc3[nH]c(-c4ccc(OC)c(OC)c4)c(CC(F)(F)F)c3c2)CC1` (stereo not drawn) [Example 377, N-(sec-butyl)-2-(4-(2-(3,4-dimethoxyphenyl)-3-(2,2,2-trifluoroethyl)-1H-indol-5-yl)piperidin-1-yl)acetamide], for which the IC50 on human TLR7 was 233 nM; at human TLR9 it was 8650 nM.

Consider `COc1ccc(-c2[nH]c3ccc(C4CCN(C(=O)CN(C)C)CC4)cc3c2CC(F)F)cc1OC` [Example 399, 1-(4-(3-(2,2-difluoroethyl)-2-(3,4-dimethoxyphenyl)-1H-indol-5-yl)piperidin-1-yl)-2-(dimethylamino)ethan-1-one], for which the IC50 against human TLR7 amounted to 106 nM; on human TLR9 it was 2170 nM.

As to `CCN1CCCC(N2CCC(c3ccc4[nH]c(-c5ccc(OC)c(OC)c5)c(C)c4c3)CC2)C1` (stereo not drawn) [Example 24, 2-(3,4-dimethoxyphenyl)-5-(1′-ethyl-[1,3′-bipiperidin]-4-yl)-3-methyl-1H-indole], the results for the IC50 on human TLR7 and against human TLR9 were no less than 50000 nM and 17500 nM, respectively.

Turning to `COc1ccc(-c2[nH]c3ccc(C4CCN(C(=O)COc5cccnc5)CC4)cc3c2CC(F)(F)F)cc1OC` [Example 349, 1-(4-(2-(3,4-dimethoxyphenyl)-3-(2,2,2-trifluoroethyl)-1H-indol-5-yl)piperidin-1-yl)-2-(pyridin-3-yloxy)ethan-1-one], the values for the IC50 on human TLR7 and against human TLR9 were 291 nM and 9730 nM, respectively.

Take `COc1ccc(-c2[nH]c3ccc(C4CCN(C(=O)CCN(C)C)CC4)cc3c2CC(F)(F)F)cc1OC` [Example 340, 1-(4-(2-(3,4-dimethoxyphenyl)-3-(2,2,2-trifluoroethyl)-1H-indol-5-yl)piperidin-1-yl)-3-(dimethylamino)propan-1-one]: the IC50 against human TLR7 is 22 nM; at human TLR9, 914 nM.

As for `COc1ccc(-c2[nH]c3ccc(C4CCN(C(=O)CCCNC(C)=O)CC4)cc3c2CC(F)(F)F)cc1OC` [Example 343, N-(4-(4-(2-(3,4-dimethoxyphenyl)-3-(2,2,2-trifluoroethyl)-1H-indol-5-yl)piperidin-1-yl)-4-oxobutyl)acetamide], the half-inhibitory concentration (IC50) at human TLR7 is 174 nM; against human TLR9 it was 40800 nM.
